ChEMBL document CHEMBL1158393, “Synthesis, characterization and in vitro antiproliferative activities of new 13-cis-retinoyl ferrocene derivatives” (Eur J Med Chem, 2009)

How the values were obtained:
Assay type in all cases: functional, cell-based
[1] = system: A549; experiment: Cytotoxicity against human A549 cells after 24 hrs by MTT assay; settings: A549, 24 h
[2] = Cytotoxicity against human Bel7404 cells after 24 hrs by MTT assay; settings: BEL-7404, 24 h
[3] = Cytotoxicity against human Tca cells after 24 hrs by MTT assay

With `CC1=C(/C=C/C(C)=C/C=C/C(C)=C\C(=O)O)C(C)(C)CCC1` [ISOTRETINOIN] the IC50 [1] was 35.8 µM, the IC50 [2] was 42.6 µM and the IC50 [3] was 39.7 µM.
